Laboratory results: patent publication US8124760B2, “Pyridyl-triazolopyrimidine derivative or its salt, pesticide containing it and its production process” (Ishihara Sangyo Kaisha, Ltd., priority 2007, dated 2012)
Like-named read-outs stand apart in the source and are kept apart here.

Tests used:
Type in all cases: in vivo
[1] = test system: Brown Planthopper (Nilaparvata lugens); assay: Test on controlling effects against brown planthopper (rice seedling dip)
Description: Test on Controlling Effects Against Brown Planthopper (Nilaparvata lugens)
Rice seedling was dipped for about 10 seconds in an insecticidal solution prepared to bring the concentration of the compound of the present invention to 200 ppm and then dried in air, its root was wrapped with a wet absorbent cotton, and the seedling was put into a test tube. Then, 10 second-third instar nymphs of Brown Planthopper were released therein, and the test tube was covered with a gauze and left in a constant temperature chamber at 25° C. with lightening. On the 5th day after the release, dead nymphs were counted, and the mortality was calculated by the following equation.

[2] = test system: Green Peach Aphid (Myzus persicae); assay: Test on controlling effects against green peach aphid (leaf dip); details: foliar, 120 h, Japanese radish leaf dipped about 10 seconds, first instar nymphs, 5 days after the treatment, 25° C.
Description: Test on Controlling Effects Against Green Peach Aphid (Myzus persicae)
A Japanese radish leaf was inserted in a test tube in which water was put, and about 20 first instar nymphs of green peach aphid were released on the leaf. On the next day, the number of nymphs parasitic on the leaf was counted, and then the leaf was dipped for about 10 seconds in an insecticidal solution prepared to bring the concentration of the compound of the present invention to 200 ppm, dried in air and left in a constant temperature chamber at 25° C. with lightening. Dead nymphs were counted 5 days after the treatment, and the mortality was calculated by the following equation. The insects dropped from the leaf or presented toxic symptom were counted as dead insects. […] Mortality (%)=(1−(number of survived insects/number of treated insects))×100

[3] = test system: Silverleaf Whitefly (Bemisia Argentifolii); assay: Test on controlling effects against silverleaf whitefly (cucumber seedling spray); details: 168 h, hand spray to cucumber seedling, first-second instar nymphs, 7 days after the treatment, 25° C., read-out: protective value
Experimental: Test on Controlling Effects Against Silverleaf Whitefly (Bemisia Argentifolii) An insecticidal solution prepared to bring the concentration of the compound of the present invention to 200 ppm was applied by a hand spray to cucumber seedling planted in a pot on which first-second instar nymphs of silverleaf whitefly were parasitic, and dried in air. Thereafter, the cucumber seedling was left in a constant temperature chamber at 25° C. with lightening. The number of old instar nymphs was counted 7 days after the treatment, and the protective value (%) was obtained by the following equation. […] Protective value (%)=(1−((Ta×Cb)/(Tb×Ca)))×100 Ta: The number of old instar nymphs after the treatment at the treated cucumber seedling Tb: The number of first-second instar nymphs before the treatment at the treated cucumber seedling Ca: The number of old instar nymphs after the treatment at the untreated cucumber seedling Cb: the number of first-second instar nymphs before the treatment at the untreated cucumber seedling

[4] = 200 ppm, rice seedling dipped about 10 seconds, second-third instar nymphs, 5th day after the release, 25° C., read-out: mortality

| SMILES | mortality at 200 ppm [1, 4] | mortality at 200 ppm [2] | pest or weed control at 200 ppm [3] | mortality at 200 ppm [1] |
| --- | --- | --- | --- | --- |
| Cc1cc(-c2ncc(C(F)(F)F)cc2I)n2ncnc2n1 [compound 41] | ≥ 90% | ≥ 90% | – | – |
| CCc1cc(-c2ncc(C(F)(F)F)cc2Cl)n2ncnc2n1 [compound No. 16, 7-(3-chloro-5-(trifluoromethyl)pyridin-2-yl)-5-ethyl-[1,2,4]triazolo[1,5-a]pyrimidine] | ≥ 90% | ≥ 90% | ≥ 80% | – |
| FC(F)(F)c1cnc(-c2cc(C3CCCC3)nc3ncnn23)c(Cl)c1 [compound 107] | ≥ 90% | – | – | – |
| O=[N+]([O-])c1cc(C(F)(F)F)cnc1-c1ccnc2ncnn12 [compound 12] | ≥ 90% | – | ≥ 80% | – |
| CC(C)c1cc(-c2ncc(C(F)(F)F)cc2Cl)n2ncnc2n1 [compound 80] | ≥ 90% | ≥ 90% | ≥ 80% | – |
| Cc1cc(-c2ncc(C(F)(F)F)cc2C#N)n2ncnc2n1 [compound 43] | ≥ 90% | ≥ 90% | – | – |
| CCCCc1cc(-c2ncc(C(F)(F)F)cc2Cl)n2ncnc2n1 [compound 83] | ≥ 90% | – | – | – |
| FC(F)(F)c1cnc(-c2cc(-c3ccco3)nc3ncnn23)c(Cl)c1 [compound 91] | – | – | – | ≥ 90% |
| FC(F)(F)c1cnc(-c2ccnc3ncnn23)c(Br)c1 [compound No. 4, 7-(3-bromo-5-(trifluoromethyl)pyridin-2-yl)-[1,2,4]triazolo[1,5-a]pyrimidine] | ≥ 90% | ≥ 90% | ≥ 80% | – |
| N#Cc1cc(C(F)(F)F)cnc1-c1ccnc2ncnn12 [compound 14] | – | – | ≥ 80% | – |
| Cc1cc(-c2ncc(Cl)cc2C(F)(F)F)n2ncnc2n1 [compound 57] | ≥ 90% | – | – | – |
| CC(C)(C)c1cc(-c2ncc(C(F)(F)F)cc2Cl)n2ncnc2n1 [compound 89] | ≥ 90% | – | – | – |
| Cc1cc(-c2nc(Cl)c(C(F)(F)F)cc2F)n2ncnc2n1 [compound 105] | ≥ 90% | – | – | – |
| Fc1cc(C(F)(F)F)cnc1-c1ccnc2ncnn12 [compound 5] | – | – | ≥ 80% | – |
| CCc1cc(C(F)(F)F)cnc1-c1cc(C)nc2ncnn12 [compound 79] | ≥ 90% | ≥ 90% | – | – |
| FC(F)(F)c1cnc(-c2cc(C3CCC3)nc3ncnn23)c(Cl)c1 [compound 99] | ≥ 90% | – | – | – |

| SMILES | mortality at 200 ppm [1, 4] | mortality at 200 ppm [2] | pest or weed control at 200 ppm [3] | mortality at 200 ppm [1] |
| --- | --- | --- | --- | --- |
| Cc1cc(-c2ccc(C(F)(F)F)cn2)n2ncnc2n1 [compound 18] | – | ≥ 90% | ≥ 80% | – |
| N#Cc1cc(-c2ncc(C(F)(F)F)cc2Cl)n2ncnc2n1 [compound 70] | ≥ 90% | – | – | – |
| FC(F)(F)c1cnc(-c2cc(C3CC3)nc3ncnn23)c(Cl)c1 [compound No. 82, 7-(3-chloro-5-(trifluoromethyl)pyridin-2-yl)-5-cyclopropyl-[1,2,4]triazolo[1,5-a]pyrimidine] | ≥ 90% | ≥ 90% | ≥ 80% | – |
| FC(F)(F)c1cnc(-c2cc(C(F)(F)F)nc3ncnn23)c(Cl)c1 [compound No. 20, 7-(3-chloro-5-(trifluoromethyl)pyridin-2-yl)5-(trifluoromethyl)-[1,2,4]triazolo[1,5-a]pyrimidine] | ≥ 90% | ≥ 90% | ≥ 80% | – |
| CCCc1cc(-c2ncc(C(F)(F)F)cc2Cl)n2ncnc2n1 [compound 17] | ≥ 90% | ≥ 90% | ≥ 80% | – |
| Cc1cc(-c2ncc(C(F)(F)F)cc2-c2ccccc2)n2ncnc2n1 [compound 52] | ≥ 90% | – | – | – |
| CC1(c2cc(-c3ncc(C(F)(F)F)cc3Cl)n3ncnc3n2)CC1 [compound 98] | ≥ 90% | – | – | – |
| Cc1cc(-c2nc(Cl)c(C(F)(F)F)cc2Cl)n2ncnc2n1 [compound 68] | ≥ 90% | ≥ 90% | – | – |
| FC(F)(F)c1cnc(-c2cc(C3CC3)nc3ncnn23)c(Br)c1 [compound 94] | ≥ 90% | ≥ 90% | ≥ 80% | – |
| Cc1cc(-c2ncc(C(F)(F)F)cc2[N+](=O)[O-])n2ncnc2n1 [compound 78] | – | ≥ 90% | – | – |
| Cc1cc(-c2cc(C(F)(F)F)cc(C(F)(F)F)n2)n2ncnc2n1 [compound 51] | – | ≥ 90% | – | – |
| CC(C)c1cc(-c2ncc(C(F)(F)F)cc2Br)n2ncnc2n1 [compound No. 95, 7-(3-bromo-5-(trifluoromethyl)pyridin-2-yl)-5-isopropyl-[1,2,4]triazolo[1,5-a]pyrimidine] | ≥ 90% | ≥ 90% | – | – |
| Cc1cc(-c2ncc(C(F)(F)F)cc2Cl)n2ncnc2n1 [compound No. 19, 7-(3-chloro-5-(trifluoromethyl)pyridin-2-yl)-5-methyl-[1,2,4]triazolo[1,5-a]pyrimidine] | ≥ 90% | ≥ 90% | ≥ 80% | – |
| Cc1cc(-c2ncc(C(F)(F)F)cc2Br)n2ncnc2n1 [compound 15] | ≥ 90% | ≥ 90% | ≥ 80% | – |
| Cc1cc(-c2ncc(C(F)(F)F)cc2C)n2ncnc2n1 [compound 44] | ≥ 90% | ≥ 90% | ≥ 80% | – |
